Results published in ChEMBL document CHEMBL1201862, “PubChem BioAssay data set” (2004).
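These data come from cells grown in 96-well plates and exposed to compound for 48 hours at five concentrations. Abbreviation: GI50, concentration required for 50% inhibition of growth.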 Calls of active or inactive are those of the source. Cut-off read from the data, not from the text of the source: active = GI50 up to about 1.1 µM and inactive = higher.

Legend:
Test in all cases: DTP human tumour cell line panel, 48 h
OVCAR-8 = tested on: OVCAR-8
HCT-116 = tested on: HCT-116
U-251 = tested on: U-251
SK-MEL-28 = tested on: SK-MEL-28
UACC-62 = tested on: UACC-62
HOP-62 = tested on: HOP-62
MDA-N = tested on: MDA-N
NCI-H460 = tested on: NCI-H460
SK-OV-3 = tested on: SK-OV-3
MOLT-4 = tested on: MOLT-4
SF-295 = tested on: SF-295
OVCAR-5 = tested on: OVCAR-5
HOP-92 = tested on: HOP-92
MDA-MB-231 = tested on: MDA-MB-231
SNB-75 = tested on: SNB-75
OVCAR-3 = tested on: OVCAR-3
NCI-H23 = tested on: NCI-H23
BT-549 = tested on: BT-549
SN12C = tested on: SN12C
SK-MEL-5 = tested on: SK-MEL-5

Compound | GI50 (OVCAR-8) | GI50 (HCT-116) | GI50 (U-251) | GI50 (SK-MEL-28) | GI50 (UACC-62) | GI50 (HOP-62) | GI50 (MDA-N) | GI50 (NCI-H460) | GI50 (SK-OV-3) | GI50 (MOLT-4) | GI50 (SF-295) | GI50 (OVCAR-5) | GI50 (HOP-92) | GI50 (MDA-MB-231) | GI50 (SNB-75) | GI50 (OVCAR-3) | GI50 (NCI-H23) | GI50 (BT-549) | GI50 (SN12C) | GI50 (SK-MEL-5)
Cc1nc(C)c(N2CCN(C(=O)NC(CCC(=O)O)C(=O)O)CC2)c(O)n1 (configuration not stated) | > 100 µM (inactive) | > 100 µM (inactive) | > 100 µM (inactive) | > 100 µM (inactive) | > 100 µM (inactive) | > 100 µM (inactive) | > 100 µM (inactive) | > 100 µM (inactive) | > 100 µM (inactive) | > 100 µM (inactive) | > 100 µM (inactive) | > 100 µM (inactive) | > 100 µM (inactive) | > 100 µM (inactive) | < 0.01 µM (active) | > 100 µM (inactive) | > 100 µM (inactive) | > 100 µM (inactive) | > 100 µM (inactive) | 
CC1=NN(c2nc(N)nc(C(C#N)C(=O)c3cc4c(cc3Cl)Sc3nccn3S4(=O)=O)n2)C(C)(C)C1 (configuration not stated) | 20.7 µM (inactive) | 18 µM (inactive) | 16 µM (inactive) | 20 µM (inactive) | 18.8 µM (inactive) | 34.7 µM (inactive) | 21.9 µM (inactive) | 8.83 µM (inactive) | 18.5 µM (inactive) | 13 µM (inactive) | 20.5 µM (inactive) | > 100 µM (inactive) | 26.7 µM (inactive) | 15.6 µM (inactive) | 16.1 µM (inactive) | 13.6 µM (inactive) | 16.1 µM (inactive) | 13.6 µM (inactive) | 17.3 µM (inactive) | 14 µM (inactive)
N#CC1(O)CCCCCCCCCCC1 | > 100 µM (inactive) | > 100 µM (inactive) | > 100 µM (inactive) | > 100 µM (inactive) | > 100 µM (inactive) | > 100 µM (inactive) | > 100 µM (inactive) | > 100 µM (inactive) | > 100 µM (inactive) | > 100 µM (inactive) | > 100 µM (inactive) | > 100 µM (inactive) | > 100 µM (inactive) | > 100 µM (inactive) |  | > 100 µM (inactive) | > 100 µM (inactive) | > 100 µM (inactive) | > 100 µM (inactive) | > 100 µM (inactive)
C=C1CC[C@H]2C(=O)OC(c3ccoc3)C[C@]2(C)C/C=C\C=C/1C(=O)OC (some centres not stated) | > 25 µM (inactive) | > 25 µM (inactive) | > 25 µM (inactive) | > 25 µM (inactive) | > 25 µM (inactive) | > 25 µM (inactive) | > 25 µM (inactive) | > 25 µM (inactive) | > 25 µM (inactive) |  | > 25 µM (inactive) | > 25 µM (inactive) | > 25 µM (inactive) | > 25 µM (inactive) | 24 µM (inactive) | 13.9 µM (inactive) | 11.4 µM (inactive) | > 25 µM (inactive) | > 25 µM (inactive) | > 25 µM (inactive)
CCOC(=O)CCC(NC(=O)Cc1ccc(Nc2nc3ccccc3nc2-c2ccccc2)cc1)C(=O)OCC (configuration not stated) | 25.2 µM (inactive) | > 100 µM (inactive) | 15.1 µM (inactive) | > 100 µM (inactive) | 50.4 µM (inactive) | 6.46 µM (inactive) | > 100 µM (inactive) | > 100 µM (inactive) | 22.4 µM (inactive) | > 100 µM (inactive) | 16.1 µM (inactive) | 93.8 µM (inactive) | 18.8 µM (inactive) | 16.9 µM (inactive) | 8.79 µM (inactive) |  | 20.7 µM (inactive) | 46.8 µM (inactive) | > 100 µM (inactive) | > 100 µM (inactive)
c1cncc(-c2ncc3cccnc3n2)c1 | > 100 µM (inactive) | > 100 µM (inactive) | > 100 µM (inactive) |  | > 100 µM (inactive) | > 100 µM (inactive) | > 100 µM (inactive) | > 100 µM (inactive) | > 100 µM (inactive) | > 100 µM (inactive) | > 100 µM (inactive) | > 100 µM (inactive) | > 100 µM (inactive) | > 100 µM (inactive) | > 100 µM (inactive) | > 100 µM (inactive) | > 100 µM (inactive) | > 100 µM (inactive) | > 100 µM (inactive) | > 100 µM (inactive)
NC1=Nc2cc(Cl)ccc2Sc2nc3ccccc3n21 | 5.09 µM (inactive) | 1.87 µM (inactive) | 4.48 µM (inactive) | > 100 µM (inactive) | 4.66 µM (inactive) | > 86.3 µM (inactive) | 3.44 µM (inactive) | 4.13 µM (inactive) | > 100 µM (inactive) | 2.61 µM (inactive) | > 95.7 µM (inactive) |  | 16.1 µM (inactive) | > 20.7 µM (inactive) | 21.4 µM (inactive) | > 100 µM (inactive) | 6.53 µM (inactive) | > 100 µM (inactive) | > 100 µM (inactive) | 4.92 µM (inactive)
CN(C)CCCC1c2ccccc2Oc2ccc(C(F)(F)F)cc21 (configuration not stated) | 16.8 µM (inactive) | 11.7 µM (inactive) | 11.4 µM (inactive) | 6.46 µM (inactive) | 9.42 µM (inactive) | 16.5 µM (inactive) | 4.02 µM (inactive) | 15 µM (inactive) | 16.8 µM (inactive) | 6.64 µM (inactive) | 16.5 µM (inactive) | 14.9 µM (inactive) | 11.9 µM (inactive) | 12.8 µM (inactive) | 14.3 µM (inactive) | 15.3 µM (inactive) | 16 µM (inactive) | 14.2 µM (inactive) | 13.5 µM (inactive) | 7.45 µM (inactive)
CC1(c2nc3ccccc3[nH]2)CCC(C(=O)O)C(C)(C)O1 (configuration not stated) | > 100 µM (inactive) | > 100 µM (inactive) | > 100 µM (inactive) | > 100 µM (inactive) | > 100 µM (inactive) | > 100 µM (inactive) | > 100 µM (inactive) |  | > 100 µM (inactive) | > 100 µM (inactive) | > 100 µM (inactive) | > 100 µM (inactive) | > 100 µM (inactive) | > 100 µM (inactive) | 39.8 µM (inactive) | > 100 µM (inactive) | > 100 µM (inactive) | > 100 µM (inactive) | > 100 µM (inactive) | > 100 µM (inactive)
Cc1ccc(N2C(N)=C(C#N)C(C#N)(C#N)C2c2ccccc2)cc1 (configuration not stated) | 20 µM (inactive) | 3.79 µM (inactive) | 17.3 µM (inactive) | 10.1 µM (inactive) | 11.4 µM (inactive) | 19.5 µM (inactive) | 3.08 µM (inactive) |  | 16.7 µM (inactive) | 2.31 µM (inactive) | 18.9 µM (inactive) | 15.5 µM (inactive) | 7.78 µM (inactive) | 11.5 µM (inactive) | 13.2 µM (inactive) | 13.7 µM (inactive) | 18.1 µM (inactive) | 10.2 µM (inactive) | 14.4 µM (inactive) | 8.63 µM (inactive)
